In this assay the target is 1C4F9 mAb. Nature of the assay: Inhibition ELISA of 1C4F9 mAb binding to adsorbed LPS. Further details: species or system mouse. The conditions noted are these: Concentration of the oligosaccharide or LPS required for 50% inhibition; purified 1C4F9. Here is the method: Studies of the specificity of the glucan-specific antibody were carried out using a series of linear oligosaccharides consisting of consecutive α1,6-linked glucose residues Glc→[α(1→6)Glc]n=1-6 and selective purified H. pylori LPS. For inhibition ELISA, serial dilutions of linear α1,6-linked glucose-containing oligosaccharides from isomalto-series [Glcα1→(6Glcα1→)n=1-6] (USBIOLOGICALS™, Swampscott, […].) or H. pylori 26695, O:3 and PJ2 LPS inhibitors were prepared and mixed with previously prepared dilutions of purified 1 C4F9 that gave an OD450=1. […] After this step, the indirect ELISA procedure was followed as described in Example 6.

Values after ≈ are worked out from the molar mass of the structure shown.

Broadly, the IC50 is the midpoint of a concentration-inhibition curve. A lower IC50 goes with inhibition by little substance. Turning to `OCC1OC(OCC2OC(OCC3OC(OCC4OC(OCC5OC(OCC6OC(OCC7OC(O)C(O)C(O)C7O)C(O)C(O)C6O)C(O)C(O)C5O)C(O)C(O)C4O)C(O)C(O)C3O)C(O)C(O)C2O)C(O)C(O)C1O` (centres unmarked) [Isomaltoheptaose], the half-inhibitory concentration (IC50) was 210 µg/mL (≈ 182 µM).

In turn, `OCC1OC(OCC2OC(OCC3OC(OCC4OC(OCC5OC(OCC6OC(O)C(O)C(O)C6O)C(O)C(O)C5O)C(O)C(O)C4O)C(O)C(O)C3O)C(O)C(O)C2O)C(O)C(O)C1O` (centres unmarked) [Isomaltohexaose] returned an IC50 of 290 µg/mL (≈ 293 µM).

Turning to `OCC1OC(OCC2OC(OCC3OC(OCC4OC(OCC5OC(O)C(O)C(O)C5O)C(O)C(O)C4O)C(O)C(O)C3O)C(O)C(O)C2O)C(O)C(O)C1O` (centres unmarked) [Isomaltopentaose], the IC50 turned out to be 460 µg/mL (≈ 555 µM).

As to `OCC1OC(OCC2OC(OCC3OC(OCC4OC(O)C(O)C(O)C4O)C(O)C(O)C3O)C(O)C(O)C2O)C(O)C(O)C1O` (centres unmarked) [Isomaltotetraose], the IC50 is 1,600 μg/mL.

Take `OCC1OC(OCC2OC(OCC3OC(O)C(O)C(O)C3O)C(O)C(O)C2O)C(O)C(O)C1O` (centres unmarked) [Isomaltotriose]: the IC50 is recorded as 10,000 μg/mL.
